Here are results for ten cell lines from the supplement of paper PMC10307832.

Holding throughout (assay): relative viability (nuclei count vs DMSO), 5 days (fraction); higher = more cells survive
Compound in experiment [1]: C1CCC(CC1)N(CCNCCC2=C3C(=C(C=C2)O)NC(=O)CO3)C(=O)CCNCCC4=CC(=C(C=C4)Cl)Cl [AZ505] + Cc1nc(Nc2ncc(C(=O)Nc3c(C)cccc3Cl)s2)cc(N2CCN(CCO)CC2)n1 [Dasatinib] (partner 0.075 µM)
An outline of the steps: (§1)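 Relative viability is defined as nuclei in treated wells over nuclei in vehicle wells. Duplicate plates were run and medians reported. Lung cancer cell lines in 1536-well plates were dosed by pin tool one day after seeding, with one drug or with a fixed anchor-drug dose plus five library-drug doses (not always all listed) in √10 steps, and nuclei were counted after 5 days.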

Compound in experiment [2]: Cn1c(=O)n(-c2ccc(C(C)(C)C#N)cc2)c2c3cc(-c4cnc5ccccc5c4)ccc3ncc21 [Dactolisib] + CC(C)C[C@H](NC(=O)[C@H](Cc1ccccc1)NC(=O)c1cnccn1)B(O)O [Bortezomib] (partner 0.002 µM)
The method, boiled down: as §1

Compound in experiment [3]: Cn1c(=O)n(-c2ccc(C(C)(C)C#N)cc2)c2c3cc(-c4cnc5ccccc5c4)ccc3ncc21 [Dactolisib] + Cc1cc(Nc2cc(N3CCN(C)CC3)nc(Sc3ccc(NC(=O)C4CC4)cc3)n2)n[nH]1 [Tozasertib] (partner 0.1 µM)
The method, boiled down:
as §1

Compound in experiment [4]: Cn1c(=O)n(-c2ccc(C(C)(C)C#N)cc2)c2c3cc(-c4cnc5ccccc5c4)ccc3ncc21 [Dactolisib] + Nc1nc2[nH]cc(CCc3ccc(C(=O)N[C@@H](CCC(=O)O)C(=O)O)cc3)c2c(=O)[nH]1 [Pemetrexed] (partner 0.2 µM)
An outline of the steps:
as §1

Regarding HCC-366, the relative viability in experiment [1] (first compound 0.08 µM) is 0.604; in experiment [1] (first compound 0.253 µM), 0.625; in experiment [1] (first compound 0.8 µM), 0.78; in experiment [1] (first compound 2.53 µM) it was 0.527; in experiment [1] (first compound 8 µM), 0.608; in experiment [2] (first compound 0.002 µM), 0.963. The relative viability worked out at 1.09 in experiment [2] (first compound 0.006325 µM); 0.988 in experiment [2] (first compound 0.02 µM); 0.593 in experiment [2] (first compound 0.06325 µM); 0.481 in experiment [2] (first compound 0.2 µM); 0.11 in experiment [3] (first compound 0.002 µM); 0.101 in experiment [3] (first compound 0.006325 µM). Also, the relative viability was determined as 0.0652 in experiment [3] (first compound 0.02 µM); 0.0776 in experiment [3] (first compound 0.06325 µM); 0.0308 in experiment [3] (first compound 0.2 µM); 0.104 in experiment [4] (first compound 0.002 µM); 0.183 in experiment [4] (first compound 0.006325 µM); 0.229 in experiment [4] (first compound 0.02 µM). For the same cell line, the relative viability in experiment [4] (first compound 0.06325 µM) came to 0.173; in experiment [4] (first compound 0.2 µM), 0.147.

Regarding HCC-827, the relative viability in experiment [1] (first compound 0.08 µM) stood at 0.399; in experiment [1] (first compound 0.253 µM), 0.35; in experiment [1] (first compound 0.8 µM), 0.385; in experiment [1] (first compound 2.53 µM), 0.313; in experiment [1] (first compound 8 µM), 0.407; in experiment [2] (first compound 0.002 µM), 1.12. Further, the relative viability in experiment [2] (first compound 0.006325 µM) was 1.01; in experiment [2] (first compound 0.02 µM) it was 1.11; in experiment [2] (first compound 0.06325 µM), 1.14; in experiment [2] (first compound 0.2 µM) it was 1.05; in experiment [3] (first compound 0.002 µM), 0.419; in experiment [3] (first compound 0.006325 µM), 0.452. Further, the relative viability in experiment [3] (first compound 0.02 µM) was 0.401; in experiment [3] (first compound 0.06325 µM), 0.416; in experiment [3] (first compound 0.2 µM), 0.329; in experiment [4] (first compound 0.002 µM), 0.216; in experiment [4] (first compound 0.006325 µM), 0.222; in experiment [4] (first compound 0.02 µM), 0.219. Moreover, the relative viability amounted to 0.213 in experiment [4] (first compound 0.06325 µM) and 0.145 in experiment [4] (first compound 0.2 µM).

On to HOP-62, for which the relative viability in experiment [1] (first compound 0.08 µM) stood at 0.528; in experiment [1] (first compound 0.253 µM), 0.644; in experiment [1] (first compound 0.8 µM) it was 0.484; in experiment [1] (first compound 2.53 µM), 0.598; in experiment [1] (first compound 8 µM), 0.64; in experiment [2] (first compound 0.002 µM) it was 0.884. In addition, the relative viability came to 0.867 in experiment [2] (first compound 0.006325 µM); 0.518 in experiment [2] (first compound 0.02 µM); 0.41 in experiment [2] (first compound 0.06325 µM); 0.252 in experiment [2] (first compound 0.2 µM); 0.423 in experiment [3] (first compound 0.002 µM); 0.383 in experiment [3] (first compound 0.006325 µM). Also, the relative viability in experiment [3] (first compound 0.02 µM) worked out at 0.473; in experiment [3] (first compound 0.06325 µM), 0.306; in experiment [3] (first compound 0.2 µM) it was 0.309; in experiment [4] (first compound 0.002 µM) it was 0.305; in experiment [4] (first compound 0.006325 µM), 0.33; in experiment [4] (first compound 0.02 µM) it was 0.341. The relative viability in experiment [4] (first compound 0.06325 µM) turned out to be 0.262; in experiment [4] (first compound 0.2 µM), 0.25.

Take IA-LM: the relative viability in experiment [2] (first compound 0.002 µM) came to 0.828; in experiment [2] (first compound 0.006325 µM), 0.691; in experiment [2] (first compound 0.02 µM) it was 0.511; in experiment [2] (first compound 0.06325 µM) it was 0.145; in experiment [2] (first compound 0.2 µM) it was 0.0972.

Regarding LC-2-ad, the relative viability amounted to 0.578 in experiment [1] (first compound 0.08 µM); 0.564 in experiment [1] (first compound 0.253 µM); 0.558 in experiment [1] (first compound 0.8 µM); 0.604 in experiment [1] (first compound 2.53 µM); 0.665 in experiment [1] (first compound 8 µM); 1.09 in experiment [2] (first compound 0.002 µM). Moreover, the relative viability was 1.04 in experiment [2] (first compound 0.02 µM); 0.734 in experiment [2] (first compound 0.06325 µM); 0.52 in experiment [2] (first compound 0.2 µM); 0.454 in experiment [3] (first compound 0.002 µM); 0.412 in experiment [3] (first compound 0.006325 µM); 0.43 in experiment [3] (first compound 0.02 µM). Moreover, the relative viability was 0.363 in experiment [3] (first compound 0.06325 µM); 0.333 in experiment [3] (first compound 0.2 µM); 0.263 in experiment [4] (first compound 0.002 µM); 0.302 in experiment [4] (first compound 0.006325 µM); 0.276 in experiment [4] (first compound 0.02 µM); 0.264 in experiment [4] (first compound 0.06325 µM). In experiment [4] (first compound 0.2 µM), the relative viability worked out at 0.272.

For LK-2, the relative viability in experiment [1] (first compound 0.08 µM) turned out to be 0.254; in experiment [1] (first compound 0.253 µM), 0.327; in experiment [1] (first compound 0.8 µM) it was 0.415; in experiment [1] (first compound 2.53 µM) it was 0.431; in experiment [1] (first compound 8 µM) it was 0.366; in experiment [3] (first compound 0.002 µM), 0.209. Moreover, the relative viability amounted to 0.197 in experiment [3] (first compound 0.006325 µM); 0.181 in experiment [3] (first compound 0.02 µM); 0.153 in experiment [3] (first compound 0.06325 µM); 0.171 in experiment [3] (first compound 0.2 µM); 0.278 in experiment [4] (first compound 0.002 µM); 0.263 in experiment [4] (first compound 0.006325 µM). Further, the relative viability in experiment [4] (first compound 0.02 µM) amounted to 0.249; in experiment [4] (first compound 0.06325 µM) it was 0.117; in experiment [4] (first compound 0.2 µM) it was 0.171.

With NCI-H358, the relative viability in experiment [1] (first compound 0.08 µM) is 0.226; in experiment [1] (first compound 0.253 µM), 0.145; in experiment [1] (first compound 0.8 µM) it was 0.192; in experiment [1] (first compound 2.53 µM) it was 0.115; in experiment [1] (first compound 8 µM), 0.167; in experiment [3] (first compound 0.002 µM), 0.114. Also, the relative viability in experiment [3] (first compound 0.006325 µM) turned out to be 0.0941; in experiment [3] (first compound 0.02 µM), 0.0945; in experiment [3] (first compound 0.06325 µM), 0.0839; in experiment [3] (first compound 0.2 µM), 0.0896; in experiment [4] (first compound 0.002 µM) it was 0.164; in experiment [4] (first compound 0.006325 µM), 0.164. The relative viability in experiment [4] (first compound 0.02 µM) turned out to be 0.159; in experiment [4] (first compound 0.06325 µM) it was 0.134; in experiment [4] (first compound 0.2 µM), 0.14.

In the case of NCI-H522, the relative viability is 0.923 in experiment [1] (first compound 0.08 µM); 0.843 in experiment [1] (first compound 0.253 µM); 0.801 in experiment [1] (first compound 0.8 µM); 0.877 in experiment [1] (first compound 2.53 µM); 0.948 in experiment [1] (first compound 8 µM); 0.625 in experiment [3] (first compound 0.002 µM). Moreover, the relative viability in experiment [3] (first compound 0.006325 µM) came out at 0.575; in experiment [3] (first compound 0.02 µM) it was 0.542; in experiment [3] (first compound 0.06325 µM) it was 0.521; in experiment [3] (first compound 0.2 µM), 0.385; in experiment [4] (first compound 0.002 µM), 1.08; in experiment [4] (first compound 0.006325 µM) it was 0.774. Moreover, the results for the relative viability in experiment [4] (first compound 0.02 µM), in experiment [4] (first compound 0.06325 µM) and in experiment [4] (first compound 0.2 µM) were 1.11, 0.927 and 0.851, respectively.

In the case of NCI-H727, the relative viability in experiment [1] (first compound 0.08 µM) was found to be 0.28; in experiment [1] (first compound 0.253 µM), 0.274; in experiment [1] (first compound 0.8 µM) it was 0.372; in experiment [1] (first compound 8 µM), 0.504; in experiment [2] (first compound 0.002 µM) it was 1.03; in experiment [2] (first compound 0.006325 µM) it was 0.58. For the same cell line, the relative viability in experiment [2] (first compound 0.02 µM) came to 0.872; in experiment [2] (first compound 0.06325 µM), 0.35; in experiment [2] (first compound 0.2 µM), 0.267; in experiment [3] (first compound 0.002 µM) it was 0.585; in experiment [3] (first compound 0.006325 µM) it was 0.587; in experiment [3] (first compound 0.02 µM) it was 0.561. For the same cell line, the results for the relative viability in experiment [3] (first compound 0.06325 µM) and in experiment [3] (first compound 0.2 µM) were 0.451 and 0.407, respectively.

Turning to NCI-H1299, the relative viability in experiment [2] (first compound 0.002 µM) was determined as 1.02; in experiment [2] (first compound 0.006325 µM), 1.05; in experiment [2] (first compound 0.02 µM), 1.05; in experiment [2] (first compound 0.06325 µM) it was 0.957; in experiment [2] (first compound 0.2 µM) it was 0.7.
